Legend:
[1] = target: human recombinant dopamine D2L receptor (Homo sapiens, UniProt P14416); assay: Dopamine D2L radioligand binding ([3H]Spiperone); conditions: compound at 0.2 μM; read-out: Percentage inhibition of ligand binding, Dopamine (0.2 μM) D2L
Procedure: To evaluate in radioligand binding assays the activity of compounds of the invention, human recombinant dopamine D2L receptor expressed in Chinese hamster ovary (CHO) cells (Grandy, D. et al, Proc. Natl. Acad. Sci. USA. 86:9762, 1989; Hayes, G. et al, Mol. Endocrinol. 6:920, 1992) in a modified Tris-HCl buffer (50 mM Tris-HCl, pH 7.4, 1.4 mM Ascorbic Acid, 0.001% BSA, 150 mM NaCl) was used. Compounds of the invention were incubated with 0.16 nM [^3H]Spiperone for 120 min at 25° C. Non-specific binding was estimated in the presence of 10 μM Haloperidol. Receptor proteins were filtered and washed, the filters were then counted to determine [^3H]Spiperone specifically bound. Compounds were screened at 1 μM or lower, using 1% DMSO as vehicle. Biochemical assay results are presented as the percent inhibition of specific binding in Table 3.

[2] = target: T1, rat adrenergic α1B receptor (Rattus norvegicus, UniProt P15823); assay: Adrenergic α1B radioligand binding ([3H]Prazosin); set-up: species or system Wistar Rat; conditions: compound at 0.1 μM; read-out: Percentage inhibition of ligand binding, Adrenergic (0.1 μM) a1B
T1 construct: rat adrenergic α1B receptor obtained from Wistar Rat liver; from tissue; host or cells: Wistar Rat liver
T1 sequence (P15823 1-515): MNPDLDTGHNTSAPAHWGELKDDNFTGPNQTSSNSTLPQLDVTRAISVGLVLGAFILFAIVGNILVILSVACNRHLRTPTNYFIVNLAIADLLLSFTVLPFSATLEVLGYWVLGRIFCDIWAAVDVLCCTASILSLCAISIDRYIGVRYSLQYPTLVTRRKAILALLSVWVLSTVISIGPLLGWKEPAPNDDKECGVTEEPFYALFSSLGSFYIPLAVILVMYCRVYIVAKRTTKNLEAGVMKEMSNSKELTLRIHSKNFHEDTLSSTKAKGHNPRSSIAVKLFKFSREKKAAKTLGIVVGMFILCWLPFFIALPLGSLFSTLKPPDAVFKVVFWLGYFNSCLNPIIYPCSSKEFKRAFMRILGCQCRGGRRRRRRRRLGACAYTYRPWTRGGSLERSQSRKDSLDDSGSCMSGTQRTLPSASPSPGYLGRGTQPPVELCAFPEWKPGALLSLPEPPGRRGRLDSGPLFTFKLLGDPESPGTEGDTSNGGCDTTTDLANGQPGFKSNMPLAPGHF
Procedure: To evaluate in radioligand binding assays the activity of compounds of the invention, rat adrenergic α1B receptor obtained from Wistar Rat liver (Garcia-S'ainz, J. et al, Biochem. Biophys. Res. Commun. 186:760, 1992; Michel, A. et al, Br. J. Pharmacol. 98:883, 1989) in a modified Tris-HCl buffer (50 mM Tris-HCl buffer, pH 7.4, 0.5 mM EDTA) was used. Compounds of the invention were incubated with 0.25 nM [^3H]Prazosin for 60 min at 25° C. Non-specific binding was estimated in the presence of 10 μM phentolamine. Receptor proteins were filtered and washed, the filters were then counted to determine [^3H]Prazosin specifically bound. Compounds were screened at 1 μM or lower, using 1% DMSO as vehicle. Biochemical assay results are presented as the percent inhibition of specific binding in Table 3.

[3] = target: T2, human recombinant adrenergic α2C receptor (Homo sapiens, UniProt P18825); assay: Adrenergic α2C radioligand binding ([3H]MK-912); conditions: compound at 0.1 μM; read-out: Percentage inhibition of ligand binding, Adrenergic (0.1 μM) a2C
T2 construct: expressed in transfected cells; host or cells: insect Sf9 cells
T2 sequence (P18825 1-462): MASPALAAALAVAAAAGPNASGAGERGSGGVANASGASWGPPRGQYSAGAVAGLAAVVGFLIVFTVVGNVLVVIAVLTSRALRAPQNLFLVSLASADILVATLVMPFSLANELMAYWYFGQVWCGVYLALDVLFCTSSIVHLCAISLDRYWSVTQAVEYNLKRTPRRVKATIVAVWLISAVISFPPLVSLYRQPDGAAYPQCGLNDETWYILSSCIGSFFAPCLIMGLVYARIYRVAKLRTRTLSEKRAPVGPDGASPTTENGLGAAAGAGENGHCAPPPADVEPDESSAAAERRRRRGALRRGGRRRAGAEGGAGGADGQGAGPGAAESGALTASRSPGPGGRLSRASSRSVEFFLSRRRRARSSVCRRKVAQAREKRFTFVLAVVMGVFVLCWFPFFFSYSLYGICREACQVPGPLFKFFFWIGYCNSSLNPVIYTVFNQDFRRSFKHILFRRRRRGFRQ
Procedure: To evaluate in radioligand binding assays the activity of compounds of the invention, human recombinant adrenergic α2C receptor expressed in insect Sf9 cells (Uhlen, S. et al, J. Pharmacol. Exp. Ther. 271:1558, 1994) in a modified Tris-HCl buffer (50 mM Tris-HCl, pH 7.4, 12.5 mM MgCl2, 2 mM EDTA) was used. Compounds of the invention were incubated with 1 nM [^3H]MK-912 for 60 min at 25° C. Non-specific binding was estimated in the presence of 10 μM WB-4101. Receptor proteins were filtered and washed, the filters were then counted to determine [^3H]MK-912 specifically bound. Compounds were screened at 1 μM or lower, using 1% DMSO as vehicle. Biochemical assay results are presented as the percent inhibition of specific binding in Table 3.

human recombinant dopamine D2L receptor, sequence (P14416 whole entry): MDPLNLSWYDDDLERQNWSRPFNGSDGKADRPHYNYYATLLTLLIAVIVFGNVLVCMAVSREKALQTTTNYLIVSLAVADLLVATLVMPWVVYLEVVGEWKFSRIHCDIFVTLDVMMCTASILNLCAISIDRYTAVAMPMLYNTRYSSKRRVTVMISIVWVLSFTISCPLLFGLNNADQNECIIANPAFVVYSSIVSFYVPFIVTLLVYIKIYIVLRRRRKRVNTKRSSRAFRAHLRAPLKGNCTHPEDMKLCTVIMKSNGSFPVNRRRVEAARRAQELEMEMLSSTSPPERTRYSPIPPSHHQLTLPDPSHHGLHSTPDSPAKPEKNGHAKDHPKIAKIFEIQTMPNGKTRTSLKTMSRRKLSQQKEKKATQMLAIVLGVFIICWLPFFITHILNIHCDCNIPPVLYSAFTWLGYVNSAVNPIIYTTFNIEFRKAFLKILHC

Structure (SMILES)	inhibition at 0.2 µM [1]	inhibition at 0.1 µM [2]	inhibition at 0.1 µM [3]
C#CCC1(C)CN(C)Cc2c1n(C)c1ccc(C)cc21 (stereo not drawn) [Compound 47, 2,4,5,8-tetramethyl-4-(prop-2-ynyl)-2,3,4,5-tetrahydro-1H-pyrido[4,3-b]indole]	5%	34%	8%
Cc1ccc2c(c1)c1c(n2C)C(C)(CCc2nc(-c3ccccc3)cs2)CN(C)C1 (stereo not drawn) [Compound 48]	-5%	20%	15%

— patent publication US20130172320A1, “PYRIDO [4,3-B] INDOLE AND PYRIDO [3,4-B] INDOLE DERIVATIVES AND METHODS OF USE” (priority 2010, published 2013)
